Values quoted from earlier work as cited in US8309133B2, “Nanoparticulate quinazoline derivative formulations” (Alkermes Pharma Ireland Limited, priority 2005, dated 2012).
Where two headings read alike, the source gives them in different places.

Experiments:
[1] = oral tablet
[2] = water at 37° C.

Question: Which Absorption ([1]; administered with food) does the source give for `C#Cc1cccc(Nc2ncnc3cc(OCCOC)c(OCCOC)cc23)c1.Cl` [erlotinib HCl, N-(3-ethynylphenyl)-6,7-bis(2-methoxyethoxy)-4-quinazolinamine] here?
Answer: Its Absorption is 100%.

Question: And the Absorption ([1]; without food)?
Answer: Its Absorption is 60%.

Question: What about the Solubility in water [2] of the same compound?
Answer: Its Solubility in water is “very slightly soluble”.
